Data as given in patent US20240285555A1, “COMPOSITIONS FOR THE TREATMENT OF COPPER DEFICIENCY AND METHODS OF USE” (priority 2018, published 2024).

Assays:
[1] = test system: Yeast coa6Δ cells; test: Rescue of respiratory growth of yeast coa6Δ cells in YPGE medium (cell density at 600 nm); format: cell-based, Saccharomyces cerevisiae
Method: FIG. 1 illustrates determination of the median effective dose (ED50) of elesclomol. Yeast coa6Δ cells were cultured in YPGE medium at 37° C. in the presence of increasing concentrations (0.01 nM to 1 μM) of elesclomol (ES). The cell density was measured spectrophotometrically after 58 hours of growth at 600 nm. The data represent the average±SD from three independent measurements.
FIGS. 3A and 3B illustrates elesclomol rescue of respiratory growth of coa6Δ cells is dependent on copper availability. BY4741 WT, FIG. 3A, and coa6Δ, FIG. 3B, cells were cultured in YPGE medium at 37° C. in the presence of 10 nM ES, 20 μM of the copper chelator bathocuproine disulfonic acid (BCS), or a combination of both. The cell density was measured spectrophotoretrically at the indicated time points at 600 nm. The data are representative of two independent experiments.
(§1) Yeast Strains and Culture Conditions. The authenticity of yeast strains was confirmed by PCR as well as by replica plating on dropout plates. Yeast cells were cultured in standard YP growth media including YPD (1% yeast extract, 2% peptone and 2% glucose), YPGal (2% galactose), YPGE (3% glycerol+1% ethanol), or synthetic media (SC glucose). For qualitative growth measurement, 10-fold serial dilutions of overnight cultures were spotted on YPD or YPGE plates and incubated at 30° C. and 37° C. for the indicated period. Growth in liquid media was measured spectrophotometrically at 600 nm.
A number of copper-binding pharmacological agents were tested for their ability to rescue respiratory deficient growth of coa6Δ cells. […] ES rescued the respiratory growth of coa6Δ cells with an ED50 of 0.8 nM (FIG. 1). ES-mediated growth rescue of coa6Δ cells was also observed on solid growth medium containing a non-fermentable carbon. […] To determine the biochemical basis for the observed respiratory rescue of coa6Δ cells, the assembly and activity of CcO-containing mitochondrial respiratory chain supercomplexes was measured by native-polyacrylamide gel electrophoresis blotting and in-gel activity assay, respectively. […]

[2] = test system: ccs1Δ cells; test: Respiratory growth rescue of ccs1Δ yeast; format: cell-based, Saccharomyces cerevisiae; details: non-fermentable media, 37° C.
Method: as §1
ES Rescues Many Different Yeast Mutants with Impaired Copper Metabolism. To test the specificity of ES mediated rescue, a number of yeast mutants of genes required for maintaining cellular and mitochondrial copper homeostasis were shortlisted. Genes were prioritized based on their evolutionary conservation, presence of pathogenic mutations in humans, and/or the existence of a related mouse phenotype (Table 3, shown below). […] Most of the yeast mutants were rescued with ES supplementation, albeit to different degrees, reflecting their distinct roles in cellular and mitochondrial copper homeostasis. […]

[3] = test system: Ctrl^−/− mouse embryonic fibroblasts (MEFs); test: COX1 levels in Ctr1 knockout mouse embryonic fibroblasts; format: cell-based; details: increasing ES doses
Method: Mammalian Cell Culture. The human control MCH46 and SCO2 patient fibroblasts as well as the rat H9c2 control and Ctr1^−/− cardiomyocytes were cultured in high glucose Dulbecco's modified Eagle's medium (DMEM) supplemented with 10% fetal bovine serum (Sigma) and 1 mM sodium pyruvate (Life Technologies). The mouse embryonic fibroblasts were cultured in DMEM 10% FBS, 1 mM sodium pyruvate, 1× minimum essential medium non-essential amino acids (MEM NEAA; Life Technologies 11140), 50 μg/mL uridine, and 1× Pen Strep Glutamine (Life Technologies 10378). All cell lines were cultured under 5% CO2 at 37° C. and were treated with indicated concentrations of ES for 3-6 days before harvesting. Whole cell protein was extracted in lysis buffer (BP-115, Boston BioProducts) supplemented with protease inhibitor cocktail (Roche Diagnostics) and the protein concentrations were determined by BCA assay (Thermo Scientific).
Immunoblotting and In-gel Activities. Sodium dodecyl sulfate polyacrylamide gel electrophoresis (SDS-PAGE) and Blue Native PAGE (BN-PAGE) were performed to separate denatured and native protein complexes, respectively. For SDS-PAGE, mitochondrial lysate ([…]) was separated on NuPAGE 4-12% Bis-Tris gels (Life Technologies, Carlsbad, CA). For BN-PAGE, yeast mitochondria were solubilized in buffer containing 1% digitonin (Life Technologies) by incubating for 15 min at 4° C. […]

[4] = test system: immortalized control (MCH46) and SCO2 patient fibroblasts, primary human skin fibroblasts (MW28); test: Cell viability of human fibroblasts (total cellular ATP, Cell-Titre GLo); format: cell-based
Method: FIGS. 5A and 5B illustrate cell viability of immortalized and primary human fibroblasts cell lines treated with increasing concentrations of elesclomol. […] Cell viability was measured by quantifying total cellular ATP levels by Cell-Titre GLo assay (Promega). Data are expressed as mean±SD (n=3).
ES Supplementation Rescues Levels of CcO Subunits in Mammalian Cell Lines with Genetic Defects in Copper Metabolism. To expand upon the findings in yeast and to test the efficacy of ES in mammalian cell culture models of copper deficiency, a Ctr1 knockout rat H9c2 cardiomyocyte cell line was constructed. […] As expected, the loss of Ctr1 led to a ˜4-fold decrease in the levels of intracellular copper (FIG. 4A) and a concomitant reduction in the levels of the CcO subunitCOX1 and superoxide dismutase, SOD1 (FIG. 4B). This validated Ctr1^−/− cell line was used to test the efficacy of ES in rescuing COX1, a copper-containing subunit of CcO and SOD1, superoxide dismutase, another copper-containing enzyme SOD1. […] Finally, the efficacy of ES in rescuing CcO defects in SCO2 patient fibroblasts that were previously shown to have a COX2 deficiency was tested.

With `CN(NC(=O)CC(=O)NN(C)C(=S)c1ccccc1)C(=S)c1ccccc1` [ES, elesclomol] the “ES mediated rescue in the presence of BCS” value ([1]; 10 nM ES with 20 μM BCS) was “diminished”, the “potency relative to copper in rescuing the respiratory growth defect” value ([1]; ES versus copper) was “at least 1000 times” and the EC50 ([1]; Saccharomyces cerevisiae, YPGE medium, 37° C., 0.01 nM to 1 μM ES, cell density at 600 nm after 58 hours, read-out: ED50 of rescue of respiratory growth) was 0.8 nM. For the same molecule, the “rescue of the respiratory growth defect” value [2] was “rescue”, the COX1 levels [3] was “dose dependent rescue” and the “toxicity in immortalized cell lines compared to primary cultures” value [4] was “much more pronounced toxicity in immortalized cell lines”. For the same molecule, the “concentration at which ES toxicity occurs relative to the dose that rescued COX2 levels” value ([4]; immortalized fibroblasts, 36 hours) was 20 ×.
